Assay results published in patent US20030167129A1, “Binding compounds and methods for identifying binding compounds” (priority 2000, published 2003).
Where a SMILES comes first, the peptide text is derived from it. Where no end group is shown, it is not given here. [ ]: non-standard residue; d: D form. pY = N[C@@H](Cc1ccc(OP(=O)(O)O)cc1)C(=O)O; 2Nal = N[C@@H](Cc1ccc2ccccc2c1)C(=O)O; Tic = O=C(O)[C@@H]1Cc2ccccc2CN1

Assays:
HIV IIIb = format: cell-based, HIV-1
Method: Several of these peptides have also been screened for activity in inhibition of HIV infectivity and determined to be effective in specifically blocking the entrance of HIV into cells with EC50's in the nM range. For example, the assays depicted in FIG. 12 confirm the inhibition of HIV infection by CXCR4 peptide inhibitors.
The anti-HIV activity of exemplary compounds was tested using established adherent HELA cells or Magi cell-based (Magi cell line incorporating the reporter genes) cell line infected with a variety of HIV-1 isolates. Inhibitory activity was determined using a reporter system. The cell line was modified to contain the gene for the HIV-LTR (long terminal repeat) promoter which is used by HIV after infection. This gene was coupled to an enzyme, β-galactosidase, which can cleave a substrate, CPRG (Chlorophenol red β-D-galactoside) which gives rise to a colored signal or FDG (Fluorescein di-Galactoside) which gives rise to a fluorescent signal. Thus, if the cell becomes infected with HIV, it couples to the HIV-LTR promoter, producing the enzyme β-galactosidase, which then cleaves the CPRG substrate giving rise to a measurable absorbance signal, for example, at or about 595 nm. […]
Measurements were taken four days after infection. […] EC50's were determined graphically using Kaleidagraph, a software program sold by Synergy Software, Reading, PA. […]

CXCR4 = molecular target: T1, CXCR4 (Homo sapiens, UniProt P61073); assay: radioligand binding assay, [125I]-SDF-1α on membrane preparations of GST-CXCR4 (High Five); conditions: increasing [125I]-SDF-1α 0.5 nM to 10 nM; GST-CXCR4 (High Five) membranes; FIG. 7A; read-out: KD, saturation binding
T1 construct: A full-length clone was not isolated with the 3′ and 5′ primers; however, two halves were isolated and ligated together; made in house; host or cells: High Five (Trichoplusia ni) insect cells, baculovirus; membrane preparation
Method: Relative affinities were measured by modifying the radiolabel binding assay used in receptor purification. Therefore, the ability of these peptides to displace [1^251]-SDF-1 from purified CXCR4 membranes was measured.
Whole cells from Sf9 and High five cell lines were lysed using hypotonic buffers (10 mM Tris, pH 7.4, 5 mM EDTA), and membrane preparations were made by homogenization and centrifugation using standard techniques known to those skilled in the art. […] For filtration and washing, the reaction was transferred to Millipore Multiscreen filter plates (HATF 0.45 μm; pre-blocked with 10% BSA) (Bedford, Mass.), filtered using vacuum, washed 4-5 times with 200 μL ice-cold buffer, and radioactive counts bound were detected using scintillation counting. All points were done in triplicate. Uninfected cells were used as a control for this experiment. […] Analyses of KD and IC50 were performed using non-linear curve fitting in Kaleidagraph (software program sold by Synergy Software, Reading, Pa.).
The affinity for the receptor was determined using standard radioligand displacement methodology.

SH2 (src) = molecular target: T2, SH2 (src) (Homo sapiens, UniProt P12931); conditions: binding domain SH2 (src); cited from earlier work
T2 construct: SH2 (src)

T1 sequence (P61073 whole entry): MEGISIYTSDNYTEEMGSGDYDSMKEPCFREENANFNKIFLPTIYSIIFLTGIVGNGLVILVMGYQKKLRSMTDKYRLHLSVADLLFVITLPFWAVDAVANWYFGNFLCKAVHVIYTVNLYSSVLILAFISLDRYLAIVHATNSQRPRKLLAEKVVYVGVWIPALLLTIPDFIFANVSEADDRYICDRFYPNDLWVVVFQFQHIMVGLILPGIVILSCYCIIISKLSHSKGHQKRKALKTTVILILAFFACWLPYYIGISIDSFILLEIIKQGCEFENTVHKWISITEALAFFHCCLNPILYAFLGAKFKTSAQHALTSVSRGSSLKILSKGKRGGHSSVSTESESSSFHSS

Molecule: CC[C@H](C)[C@H](NC(=O)[C@H](CC(C)C)NC(=O)[C@H](CO)NC(=O)[C@H](CCCNC(=N)N)NC(=O)[C@H](C)N)C(=O)N[C@@H](Cc1ccc2ccccc2c1)C(=O)N[C@@H](CCCNC(=N)N)C(=O)N1Cc2ccccc2C[C@H]1C(=O)N[C@@H](C)C(=O)N[C@@H](CCCNC(=N)N)C(=O)N[C@@H](CCCNC(=N)N)C(=O)N[C@@H](Cc1ccc2ccccc2c1)C(=O)N[C@@H](CCCNC(=N)N)C(=O)N[C@@H](CCCNC(=N)N)C(N)=O [CPI-1500, ARSLI(2-Nal)R(Tic)ARR(2-Nal)RR] (H-ARSLI[2Nal]R[Tic]ARR[2Nal]RR-NH2; N-terminus assumed)
- viral specificity (HIV IIIb; HIV IIIb versus R5 virus 9881): specificity for the HIV IIIb over the R5 virus 9881
- EC50 (HIV IIIb; HIV IIIb, FIG. 12A, read-out: EC50, inhibition of infection of HIV IIIb): 280 nM

Molecule: [^125I]-SDF-1α: radiolabeled SDF-1α, the radioligand of the CXCR4 binding assay
- Kd (CXCR4): 3.27 nM

Molecule: pYEEIY ([pY]EEIY)
- Kd (SH2 (src)): 100 nM
